Source: patent US11999712B1, “2-(benzo[b]thiophen-3-yl)-1-butyl-4,5-diphenyl-1H-imidazole as an anti-inflammatory and anti-microbial compound” (KING FAISAL UNIVERSITY, priority 2023, dated 2024)

Legend:
Candida albicans = assay: antimicrobial activity, agar dilution method; type: cell-based; conditions: after 10, 20, 40 and 60 min at all dilutions 1:100, 1:200, 1:400, 1:800
Method: (§1) The antibacterial properties of the synthesized compounds were studied by the method of agar dilution. Test solutions of each compound was prepared in a concentration of 1% using dimethylformamide as a solvent. Then the test solutions were diluted in a physiological solution to obtain the final experimental dilutions of 1:100, 1:200, 1:400, and 1:800. The effect of these substances was compared with furacillin in a controllable study. The testing microbes used were gram positive bacteria St. Aereus, gram negative bacteria E. Coli, and Ps. aeruginosa and Candida albicans fungi. The experiments used for this survey were a meat-pentonlu agar (EPA) for cultivation of bacteria and a Saburo environment for fungi. Each experiment used 1 mL of test solution on each plate for 500 min. Next, 2 drops of emulsified test solution with microbes feel were added. All experimental samples were taken from the agar after 10, 20, 40, 60 minutes in the environment on the basis of Patrk planted. Bacteria were cultivated at a temperature of 37° ° C. for 1 day and the mushroom was kept in a thermostat for […] at a temperature of 28° C. Then results were checked. Results for the control and the antimicrobial activity for the synthesized compounds are listed in Table 1 below. […]

Ps. aeruginosa = assay: antimicrobial activity, agar dilution method; type: cell-based; conditions: after 10, 20, 40 and 60 min at all dilutions 1:100, 1:200, 1:400, 1:800
Method: as §1

E. Coli = assay: antimicrobial activity, agar dilution method; type: cell-based; conditions: after 10, 20, 40 and 60 min at all dilutions 1:100, 1:200, 1:400, 1:800
Method: as §1

St. Aereus = assay: antimicrobial activity, agar dilution method; type: cell-based; conditions: after 10, 20, 40 and 60 min at all dilutions 1:100, 1:200, 1:400, 1:800
Method: as §1

Structure (SMILES)	inhibition activity (Candida albicans)	inhibition activity (Ps. aeruginosa)	inhibition activity (E. Coli)	inhibition activity (St. Aereus)	melting point
CCCCn1c(-c2csc3ccccc23)nc(-c2ccccc2)c1-c1ccccc1 [2-(Benzo[b]thiophen-3-yl)-1-butyl-4,5-diphenyl-1H-imidazole]	most inhibition activity	most inhibition activity	most inhibition activity	most inhibition activity	151 to 153 °C
CN(C)CCCn1c(-c2cccnc2)nc(-c2ccccc2)c1-c1ccccc1 [3-(4,5-Diphenyl-2-(pyridin-3-yl)-1H-imidazol-1-yl)-N,N-dimethylpropan-1-amine]	highest inhibition activity	highest inhibition activity	highest inhibition activity	highest inhibition activity	
